Reference: US20130116277A1, “ALDO-KETO REDUCTASE SUBFAMILY 1C3 (AKR1C3) INHIBITORS” (priority 2007, published 2013)
Several values for one entry are separate records, joined by “and”; a condition that tells them apart may be missing. Equal entries are not always repeated. Where two headings read alike, the source gives them in different places.

What was measured:
[1] = biological target: T1, ER-alpha (Homo sapiens, UniProt P03372); assay: ER-alpha transactivation (ERE-LUC luciferase) in HEK-293 cells; assay type: cell-based; conditions: for EC50: read-out: Agonist ER-α; for IC50: antagonist mode, in combination with estradiol, read-out: Antagonist ER-α;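 as to all read-outs here: HEK-293 cells co-transfected with an ER-alpha expression plasmid, an ERE-driven firefly luciferase reporter and a CMV Renilla control, with the firefly signal normalized to Renilla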
T1 construct: expressed in transfected cells; host or cells: HEK-293
T1 sequence (P03372 1-595): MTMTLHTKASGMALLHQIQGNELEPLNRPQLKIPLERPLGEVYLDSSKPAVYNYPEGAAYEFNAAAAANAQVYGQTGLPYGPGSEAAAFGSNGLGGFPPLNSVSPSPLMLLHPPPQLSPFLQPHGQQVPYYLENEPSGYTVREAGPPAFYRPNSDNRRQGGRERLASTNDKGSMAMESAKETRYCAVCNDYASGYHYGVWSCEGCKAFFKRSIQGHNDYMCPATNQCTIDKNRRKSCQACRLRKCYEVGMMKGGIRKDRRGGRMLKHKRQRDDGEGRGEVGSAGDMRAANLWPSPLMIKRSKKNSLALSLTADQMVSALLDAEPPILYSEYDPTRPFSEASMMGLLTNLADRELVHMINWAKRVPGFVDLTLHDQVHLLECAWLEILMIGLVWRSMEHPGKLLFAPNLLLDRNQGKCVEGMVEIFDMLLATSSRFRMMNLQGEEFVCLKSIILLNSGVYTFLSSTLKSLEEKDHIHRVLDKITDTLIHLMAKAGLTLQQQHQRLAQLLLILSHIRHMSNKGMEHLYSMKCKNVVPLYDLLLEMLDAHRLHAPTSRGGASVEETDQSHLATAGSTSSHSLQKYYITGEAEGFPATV

[2] = biological target: T2, ER-beta (Homo sapiens, UniProt Q92731); assay: ER-beta transactivation (ERE-LUC luciferase) in HEK-293 cells; assay type: cell-based; conditions: for EC50: read-out: Agonist ER-β; for IC50: antagonist mode, in combination with estradiol, read-out: Antagonist ER-β;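 as to all read-outs here: HEK-293 cells transiently transfected with an ER-β expression plasmid and ERE-LUC reporter, firefly luciferase read-out normalized to co-transfected Renilla luciferase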
T2 construct: expressed in transfected cells; host or cells: HEK-293
T2 sequence (Q92731 whole entry, species assumed): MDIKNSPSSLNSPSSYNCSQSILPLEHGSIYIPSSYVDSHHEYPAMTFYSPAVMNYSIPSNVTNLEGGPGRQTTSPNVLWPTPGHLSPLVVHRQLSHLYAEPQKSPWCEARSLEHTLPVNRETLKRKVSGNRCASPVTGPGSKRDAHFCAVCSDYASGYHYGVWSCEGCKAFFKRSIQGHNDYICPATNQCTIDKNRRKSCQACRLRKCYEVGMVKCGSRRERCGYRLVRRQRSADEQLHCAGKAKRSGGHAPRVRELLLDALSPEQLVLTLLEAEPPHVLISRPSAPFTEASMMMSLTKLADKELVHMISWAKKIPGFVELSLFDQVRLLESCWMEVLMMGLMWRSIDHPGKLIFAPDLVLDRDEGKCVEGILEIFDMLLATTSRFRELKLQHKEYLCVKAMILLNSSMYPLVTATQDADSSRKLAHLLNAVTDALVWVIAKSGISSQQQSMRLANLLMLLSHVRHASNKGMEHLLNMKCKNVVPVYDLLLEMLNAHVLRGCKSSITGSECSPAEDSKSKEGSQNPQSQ

[3] = biological target: ER-β (Homo sapiens, UniProt Q92731); assay: ER-β ligand binding domain competitive binding with [3H]Estradiol
Sequence of ER-β (Q92731 264-498 limits assumed, species assumed): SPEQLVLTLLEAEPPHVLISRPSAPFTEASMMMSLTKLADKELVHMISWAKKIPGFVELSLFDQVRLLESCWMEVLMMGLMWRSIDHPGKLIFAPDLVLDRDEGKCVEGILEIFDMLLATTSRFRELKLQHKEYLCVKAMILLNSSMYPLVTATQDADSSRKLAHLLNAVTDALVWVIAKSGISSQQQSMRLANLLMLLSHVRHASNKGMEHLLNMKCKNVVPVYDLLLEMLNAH

[4] = biological target: T3, ER-α (Homo sapiens, UniProt P03372); assay: ER-α ligand binding domain competitive binding with [3H]Estradiol
T3 sequence (P03372 311-547 limits assumed): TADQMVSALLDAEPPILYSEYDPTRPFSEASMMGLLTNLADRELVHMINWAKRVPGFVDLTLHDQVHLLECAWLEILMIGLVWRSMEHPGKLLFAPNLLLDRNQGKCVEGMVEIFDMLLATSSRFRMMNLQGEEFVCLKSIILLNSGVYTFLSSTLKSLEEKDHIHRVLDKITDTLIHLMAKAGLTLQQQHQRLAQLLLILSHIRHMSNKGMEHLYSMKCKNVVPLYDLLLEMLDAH

[5] = biological target: T4, AKR1C3 (Homo sapiens, UniProt P42330); assay: Purified AKR1C3 enzyme assay, [14C]-A'dione to testosterone, TLC based; assay type: biochemical; set-up: GST (N); made in house; host or cells: bacterial culture, IPTG induced (E. coli BL21-DE3 is named only for the crystallography preparation)
T4 sequence (P42330 1-323): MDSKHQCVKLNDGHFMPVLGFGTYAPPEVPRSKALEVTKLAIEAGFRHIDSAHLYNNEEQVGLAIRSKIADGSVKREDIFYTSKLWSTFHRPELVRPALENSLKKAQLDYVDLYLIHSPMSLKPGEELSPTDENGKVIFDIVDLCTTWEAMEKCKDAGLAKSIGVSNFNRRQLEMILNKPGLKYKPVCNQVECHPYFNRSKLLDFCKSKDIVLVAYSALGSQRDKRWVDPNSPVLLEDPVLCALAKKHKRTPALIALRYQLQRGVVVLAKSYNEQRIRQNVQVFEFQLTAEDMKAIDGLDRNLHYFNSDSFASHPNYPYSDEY
Description: Perkin Elmer; […] American Radiolabeled Chemicals, St. Louis, Mo.). The reaction was stopped by the addition of 400 μl ethyl acetate, vortexed, and spun for […] at 2000 rpm. The upper layer was transferred to a new tube and air dried. The pellet was resuspended in 25 μl of methanol, spotted on TLC plates and fractionated in TLC chamber with 3:1 chloroform:ethyl acetate. Once the mobile phase reached the top, the plates were dried and exposed to a phosphoimager screen overnight. […] Perkin Elmer) was incubated at 37° C. for 60 min. The reaction was stopped by the addition of 400 μl ethyl acetate, vortexed, and spun for […] at 2000 rpm. The upper layer was transferred to a new tube and air dried. The pellet was resuspended in 25 μl of methanol, spotted on TLC plates and fractionated in TLC chamber with 3:1 chloroform:ethyl acetate. Once the mobile phase reached the top, the plates were dried and exposed to a phosphoimager screen overnight.

[6] = Liver microsome incubation (HLM Phase I and Phase I + II), LC-MS/MS; assay type: in vitro ADME, human; conditions: for microsomal CLint: human, human liver microsomes
Description: Stock solutions of prespective AKR1C3 inhibitors were prepared in DMSO at 5 mM and were incubated with liver microsomes (0.1 mg/mL). Incubations were conducted at 37° C. in a shaking water bath for 10 minutes (microsomes). Incubation durations were selected based on time course study (microsomes) or published literature (recombinant enzymes). Prepared samples were analyzed using LC-MS/MS.

[7] = biological target: T4, AKR1C3; assay: cell-based
[8] = 10 μM inhibitor, purified AKR1C3 TLC based enzyme assay, read-out: AKR1C3 inhibition at 10 μM
[9] = read-out: % inhibition from control HSD-5 (10 uM)
[10] = HLM Phase I + II, read-out: HLM Phase I + II CLint
[11] = HLM Phase I, read-out: HLM Phase I CLint

| EC50 ([1]; agonist mode, drug alone) [µM] | IC50 [1] [µM] | EC50 ([2]; agonist mode, drug alone) [µM] | IC50 [2] [µM] | Ki [3] [nM] | Ki [4] [nM] | inhibition at 10 µM [5, 8] [%] | inhibition at 10 µM [5, 9] [%] | HLM Phase I + II T-1/2 ([6]; HLM Phase I + II) | microsomal CLint [6, 10] [µL/min/mg] | microsomal CLint [6, 11] [µL/min/mg] | IC50 [7] [µM] | Agonist ER-α ([1]; agonist mode, drug alone) | Agonist ER-β ([2]; agonist mode, drug alone) | HLM Phase I + II CLint ([6]; HLM Phase I + II) [µL/min/mg] | Compound | HLM Phase I T-1/2 ([6]; HLM Phase I) | HLM Phase I CLint ([6]; HLM Phase I) |
| --- | --- | --- | --- | --- | --- | --- | --- | --- | --- | --- | --- | --- | --- | --- | --- | --- | --- |
| > 10 | > 10 | > 10 | > 10 | > 2200 | > 1510 | 0 | 0 | – | – | – | – | – | – | – | COc1ccc(-n2cc(-c3ccc(C(F)(F)F)cc3)c3cc(OC)ccc3c2=O)cc1 [Compound 35, 6-methoxy-2-(4-methoxyphenyl)-4-(4-(trifluoromethyl)phenyl)isoquinolin-1(2H)-one] | – | – |
| > 10 | > 10 | > 10 | > 10 | > 2200 | > 1510 | 10 | 10 | – | – | – | – | – | – | – | O=c1c2ccc(O)cc2c(-c2ccc(C(F)(F)F)cc2)cn1-c1ccc(F)cc1 [Compound 34, 2-(4-fluorophenyl)-6-hydroxy-4-(4-(trifluoromethyl)phenyl)isoquinolin-1(2H)-one] | – | – |
| > 10 | > 10 | > 10 | 1.95 | 56.2 | 1420 | 0 | 0 | – | – | – | – | – | – | – | O=c1c2ccc(O)cc2c(-c2ccc(O)cc2)cn1-c1ccc(O)cc1 [Compound 6, 6-hydroxy-2,4-bis(4-hydroxyphenyl)isoquinolin-1(2H)-one] | – | – |
| > 10 | > 10 | > 10 | > 10 | > 2200 | > 1510 | 17 | 17 | – | – | – | – | – | – | – | COc1ccc(-c2cn(-c3ccc(CO)cc3)c(=O)c3ccc(OC)cc23)cc1 [Compound 10, 2-(4-hydroxymethyl)phenyl-6-methoxy-4-(4-methoxyphenyl)-isoquinolin-1(2H)-one] | – | – |
| > 10 | > 10 | > 10 | > 10 | > 2200 | > 1510 | – | 10 | – | – | – | – | – | – | – | CCOC(=O)/C=C/c1cn(-c2ccc(OC)cc2)c(=O)c2c(O)cc(OC)cc12 [Compound 15j] | – | – |
| > 10 | > 10 | > 10 | > 10 | > 2200 | > 1510 | 30 | 30 | 7.9 min | 88.1 | 6.8 | – | – | – | – | O=c1c2ccc(O)cc2c(-c2ccc(C(F)(F)F)cc2)cn1-c1ccc(C(F)(F)F)cc1 [Compound 30, 6-hydroxy-2,4-bis(4-(trifluoromethyl)phenyl)isoquinolin-1(2H)-one] | 102.3 min | – |
| – | 1.72 | – | 2.21 | 7.23 | 503 | – | 30 | 1.56 min and 1.5 min | 442 | 16 | – | Partial agonist | Partial agonist | 460 | O=c1c2c(O)cc(O)cc2c(Br)cn1-c1cccc(O)c1 [ZW-315-047] | 41.58 min and 33.55 min and 35.5 min and 29.3 min | 20.16 µL/min/mg and 19.5 µL/min/mg and 23.7 µL/min/mg |
| – | – | – | – | > 220 | > 151 | – | 12 | – | – | – | – | – | – | – | O=C(O)/C=C/c1cn(-c2ccc(O)cc2)c(=O)c2ccc(O)cc12 [Compound 15k] | – | – |
| > 10 | > 10 | > 10 | > 10 | > 2200 | > 1510 | 50 | 50 | – | – | – | 0.289 | – | – | – | O=c1c2ccc(O)cc2c(-c2ccc(C(F)(F)F)cc2)cn1-c1ccc(CBr)c(O)c1 [Compound 26, 2-(4-(bromomethyl)-3-hydroxyphenyl)-6-hydroxy-4-(4-(trifluoromethyl)phenyl)isoquinolin-1(2H)-one] | – | – |
| – | – | – | – | 613 | > 1510 | – | – | – | – | – | 1.71 | – | – | – | O=C(O)/C=C/c1cn(-c2ccc(O)cc2)c(=O)c2c(O)cc(O)cc12 [Compound 15l, (E)-3-(6,8-dihydroxy-2-(4-hydroxyphenyl)-1-oxo-1,2-dihydroisoquinolin-4-yl)acrylic acid] | – | – |
| > 10 | > 10 | > 10 | > 10 | > 2200 | – | 55 | 55 | 5.0 min | 138 | 84.1 | 5.18 | – | – | – | O=c1c2ccc(O)cc2c(-c2ccc(O)cc2)cn1-c1ccc(CBr)cc1 [Compound 11, 2-(4-bromomethyl)phenyl-6-hydroxy-4-(4-hydroxyphenyl)isoquinolin-1(2H)-one] | 8.23 min and 5.90 min | 119 µL/min/mg |
| > 10 | > 10 | > 10 | > 10 | > 2200 | > 1510 | – | – | – | – | – | 1.32 | – | – | – | O=c1c2ccc(O)cc2c(-c2ccc(O)cc2)cn1-c1ccc(CO)cc1 [Compound 14, 6-hydroxy-2-(4-(hydroxymethyl)phenyl)-4-(4-hydroxyphenyl)isoquinolin-1(2H)-one] | – | – |

| Compound | EC50 ([1]; agonist mode, drug alone) [µM] | IC50 [1] [µM] | EC50 ([2]; agonist mode, drug alone) [µM] | IC50 [2] [µM] | Ki [3] [nM] | Ki [4] [nM] | inhibition at 10 µM [5, 8] [%] | inhibition at 10 µM [5, 9] [%] | HLM Phase I + II T-1/2 ([6]; HLM Phase I + II) | microsomal CLint [6, 10] [µL/min/mg] | microsomal CLint [6, 11] [µL/min/mg] | IC50 [7] [µM] | Agonist ER-α ([1]; agonist mode, drug alone) | Agonist ER-β ([2]; agonist mode, drug alone) | HLM Phase I + II CLint ([6]; HLM Phase I + II) [µL/min/mg] | HLM Phase I T-1/2 ([6]; HLM Phase I) | HLM Phase I CLint ([6]; HLM Phase I) |
| --- | --- | --- | --- | --- | --- | --- | --- | --- | --- | --- | --- | --- | --- | --- | --- | --- | --- |
| COc1ccc(-c2cn(-c3ccc(O)cc3)c(=O)c3ccc(O)cc23)cc1 [Compound 15b] | > 10 | > 10 | > 10 | 0.128 | 252 | 2100 | – | 47 | 3.7 min | 188 | 24.5 | – | – | – | – | 28.3 min | – |
| O=c1c2c(O)cc(O)cc2c(-c2ccccc2)cn1-c1ccc(O)cc1 [Compound 15h, 6,8-dihydroxy-2-(4-hydroxyphenyl)-4-phenylisoquinolin-1(2H)-one] | > 10 | 2.03 | > 10 | 0.0534 | 3.03 | – | – | 0 | 11.4 min | 60.7 | 7.9 | 6.64 | – | – | – | 87.1 min | – |
